The test system of data set [1] is female Sprague-Dawley rats. The data set can be described thus: Orofacial formalin test without nitroglycerin. Format: in vivo, rat. The note with it: 3 mg/kg i.p. 30 min before formalin, no nitroglycerin pretreatment.
Data set [2] has as its target 5-HT1B (Homo sapiens, UniProt P28222). The data set can be described thus: NIMH PDSP primary binding screen, 5-HT1B. The note with it: read-out: Inhibition (%) 5-HT1B.
Data set [3] deals with T1, Rat sEH (Rattus norvegicus, UniProt P80299).
T1 sequence (P80299 1-554): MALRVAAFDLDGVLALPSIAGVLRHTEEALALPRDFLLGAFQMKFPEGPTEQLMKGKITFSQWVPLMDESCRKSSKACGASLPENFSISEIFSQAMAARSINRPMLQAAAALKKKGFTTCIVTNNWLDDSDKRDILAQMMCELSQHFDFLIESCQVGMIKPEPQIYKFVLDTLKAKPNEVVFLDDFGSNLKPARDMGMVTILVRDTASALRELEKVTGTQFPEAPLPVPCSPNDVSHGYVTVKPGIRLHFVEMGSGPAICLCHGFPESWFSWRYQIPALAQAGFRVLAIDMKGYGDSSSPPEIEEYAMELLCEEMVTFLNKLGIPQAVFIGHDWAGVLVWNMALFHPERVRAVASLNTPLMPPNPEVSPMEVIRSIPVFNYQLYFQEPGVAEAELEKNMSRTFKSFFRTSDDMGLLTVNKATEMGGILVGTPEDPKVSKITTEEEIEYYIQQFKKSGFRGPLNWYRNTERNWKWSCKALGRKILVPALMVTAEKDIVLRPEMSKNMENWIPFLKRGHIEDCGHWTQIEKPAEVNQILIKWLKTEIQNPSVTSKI
The experiment in a line: sEH fluorescent-based inhibition assay. Format: biochemical.

The target of data set [4] is T2, 5-HT3 (Homo sapiens, UniProt P46098).
T2 sequence (P46098 24-478): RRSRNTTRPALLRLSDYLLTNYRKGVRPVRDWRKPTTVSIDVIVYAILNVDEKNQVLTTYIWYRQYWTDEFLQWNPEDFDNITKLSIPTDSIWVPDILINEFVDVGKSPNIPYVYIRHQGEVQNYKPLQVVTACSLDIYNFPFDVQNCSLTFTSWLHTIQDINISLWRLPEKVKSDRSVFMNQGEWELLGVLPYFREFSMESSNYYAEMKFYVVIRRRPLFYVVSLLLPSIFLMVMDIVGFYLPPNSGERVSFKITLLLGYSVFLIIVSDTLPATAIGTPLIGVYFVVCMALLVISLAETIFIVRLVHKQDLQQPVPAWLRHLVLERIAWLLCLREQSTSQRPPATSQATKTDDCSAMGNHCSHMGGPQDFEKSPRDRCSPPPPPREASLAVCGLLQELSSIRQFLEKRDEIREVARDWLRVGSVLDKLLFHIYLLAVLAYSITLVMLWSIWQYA
The data set can be described thus: NIMH PDSP primary binding screen, 5-HT3. The note with it: read-out: Inhibition (%) 5-HT3.

Data set [5] is described as follows: Microsomal stability assay in rat liver microsomes. Format: in vitro ADME. The note with it: pH 7.4. A general note: Microsomes from liver hold many membrane-bound enzymes, among them those of drug oxidation.

SMILES strings stand for the structures.

Usually inhibition stands for the change of the read-out against control, counted positive when it falls. In general, IC50 refers to the concentration that gives 50% inhibition. A high value points to lower potency. The half-life is how long it takes for the measured level to halve. The low end stands for fast loss, the high end for slow loss. One may read the microsomal CLint as a measure of how fast metabolising enzymes remove a compound, apart from limits set by blood flow. A low value points to greater metabolic stability.

5-HT1B, sequence (P28222 whole entry, species assumed): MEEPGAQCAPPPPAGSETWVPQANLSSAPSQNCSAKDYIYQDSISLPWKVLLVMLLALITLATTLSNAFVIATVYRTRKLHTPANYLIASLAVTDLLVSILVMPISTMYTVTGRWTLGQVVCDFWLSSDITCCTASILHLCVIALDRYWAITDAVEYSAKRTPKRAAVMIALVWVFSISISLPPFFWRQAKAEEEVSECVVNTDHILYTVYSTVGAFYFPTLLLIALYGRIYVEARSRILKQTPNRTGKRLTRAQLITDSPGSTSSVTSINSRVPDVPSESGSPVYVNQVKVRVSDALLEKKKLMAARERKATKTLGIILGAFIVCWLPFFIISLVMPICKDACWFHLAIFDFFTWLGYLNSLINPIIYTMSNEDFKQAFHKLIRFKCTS

For the compound `O=C(Nc1ccc(-c2ccc3ccncc3c2)cc1)C1CCN(S(=O)(=O)c2ccccc2Cl)CC1` [Compound 4f, 1-((2-chlorophenyl)sulfonyl)-N-(4-(isoquinolin-7-yl)phenyl)piperidine-4-carboxamide], in data set [1], the “Time spent rubbing the injected area vs vehicle” value is given as “no significant difference”. Further, the inhibition at 10 µM in data set [2] was 12.4 ± 2.29%. In data set [3], this compound gave an IC50 of 1 nM. The inhibition at 10 µM in data set [4] is -0.28 ± 5.94%. For the same compound, in data set [5], the half-life at 1 µM was 25.6 min and the intrinsic metabolic clearance (microsomal CLint) at 1 µM was determined as 54 µL/min/mg.

The values above are taken from article PMC12018053 (Biochemistry and Biophysics Reports, 2025).
